Results published in patent US6878727B2 (Agouron Pharmaceuticals, Inc., priority 2002, dated 2005).

What follows are compounds tested against T1, HCV polymerase (Hepatitis C virus genotype 1b, UniProt P26663) (assay: HCV Polymerase Inhibition Assay). Conditions: @ 50 μM compound; given where it was impractical to calculate an IC50.
T1 construct: 2.5 pmoles (0.15 μg) HCV polymerase protein in a final volume of 75 μL
Format: biochemical
Protocol: HCV Polymerase Inhibition Assay
The above-described compounds were tested for activity with HCV polymerase. Recombinant HCV polymerase was tested for its ability to perform primer/template-directed transcription in assays that contained 30 mM tris-HCl pH 7.2, 10 mM MgCl2, 20 mM NaCl, 1 mM Dithiothreitol (DTT), 0.05% Tween-20, 1% glycerol, 5 pmoles biotin-dG12 (primer), 0.5 pmoles poly(rC)300 (template), 1 μM GTP, 0.1-0.3 uCi α-^32P-GTP, and 2.5 pmoles (0.15 μg) HCV polymerase protein in a final volume of 75 μL. Reactions were initiated by addition of enzyme and incubated 30 minutes at 30° C. Reactions were stopped by addition of 33 mM EDTA, and polynucleotide products were collected by filtration through Diethylaminoethyl (DE) Filtermat papers (Wallac). Unincorporated triphosphate was removed by washing the filters with 5% dibasic sodium phosphate. The filters were counted in a Packard Tri-Lux Microbeta scintillation counter (Packard Bioscience, Meriden, Conn.). Compounds to be tested were added at various concentrations, e.g., 1 μm to 50 μm, from stocks in 10% DMSO-water (final DMSO is 1% in reaction).
IC50 values were estimated from the primary cpm data (collected in triplicate) using the formula: cpm (I)=cpm (no inhibitor)(1−([I]/([I]+IC50))). An IC50 value represents the concentration (in μM) of a compound that provides 50% inhibition of polymerase-directed transcription in the above assay. A percent inhibition value is expressed for a compound where it was impractical to calculate an IC50 value with available data. If the IC50 estimated by the above equation was less than 200 nM, it was recalculated using the following equation, which takes into account the enzyme concentration (30 nM) in the assay: cpm(I)=cpm(no inhibitor)(1−((((I+IC50+30e−9)−sqrt(((I+IC50+30e−9)^2)−4×30e−9×1)))/((2) (30e−9))). Curve fitting was performed using the program KaleidaGraph (Synergy Software, Reading, Pa.).

T1 sequence (P26663 2420-3010): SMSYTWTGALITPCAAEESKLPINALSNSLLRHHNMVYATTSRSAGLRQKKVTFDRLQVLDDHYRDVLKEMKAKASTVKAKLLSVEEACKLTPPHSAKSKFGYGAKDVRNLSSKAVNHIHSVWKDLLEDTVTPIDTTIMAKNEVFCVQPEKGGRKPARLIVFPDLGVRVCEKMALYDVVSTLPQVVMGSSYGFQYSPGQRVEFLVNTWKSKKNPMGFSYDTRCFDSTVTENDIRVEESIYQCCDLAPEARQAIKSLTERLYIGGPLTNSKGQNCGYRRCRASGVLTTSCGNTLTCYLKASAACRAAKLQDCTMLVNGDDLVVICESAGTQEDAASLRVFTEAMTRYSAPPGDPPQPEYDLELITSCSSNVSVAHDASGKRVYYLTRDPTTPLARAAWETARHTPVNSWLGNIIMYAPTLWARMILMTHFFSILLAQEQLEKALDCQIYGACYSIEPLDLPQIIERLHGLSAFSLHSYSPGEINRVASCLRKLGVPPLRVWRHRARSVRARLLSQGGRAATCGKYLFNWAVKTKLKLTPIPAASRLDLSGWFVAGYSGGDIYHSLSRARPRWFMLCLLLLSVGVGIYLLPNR

Compound	inhibition at 50 µM
CCOC1=CC(=O)OC(CCC#Cc2cccc(O)c2)(C2CCCC2)C1 (centres unmarked) [Example 15, 6-cyclopentyl-4-ethoxy-6-[4-(3-hydroxy-phenyl)-but-3-ynyl]-5,6-dihydro-pyran-2-one]	27%

Same assay, conditions: recombinant HCV polymerase, primer/template-directed transcription (biotin-dG12/poly(rC)300), 30 minutes at 30° C.

Compound	IC50
O=C1CC(=O)OC(CCC#Cc2ccc3c(c2)OCCO3)(C2CCCC2)C1 (centres unmarked) [Example 9, 6-Cyclopentyl-6-[4-(2,3-dihydro-benzo[1,4]dioxin-6-yl)-but-3-ynyl]-dihydro-pyran-2,4-dione]	11.7 µM
O=C1CC(=O)OC(CCC#Cc2ccccc2)(C2CCCC2)C1 (centres unmarked) [Example 6, 6-cyclopentyl-6-(4-phenyl-but-3-ynyl)-dihydro-pyran-2,4-dione]	8.29 µM
O=C1CC(=O)OC(CCC#Cc2ccc3scnc3c2)(C2CCCC2)C1 (centres unmarked) [Example 8, 6-(4-Benzothiazol-5-yl-but-3-ynyl)-6-cyclopentyl-dihydro-pyran-2,4-dione]	4.5 µM
O=C1CC(=O)OC(CCC#Cc2cccc(O)c2)(C2CCCC2)C1 (centres unmarked) [Example 13, 6-Cyclopentyl-6-[4-(3-hydroxy-phenyl)-but-3-ynyl]-dihydro-pyran-2,4-dione]	4.5 µM
O=C1CC(=O)OC(CCC#Cc2ccc3ocnc3c2)(C2CCCC2)C1 (centres unmarked) [Example 14, 6-(4-benzooxazol-5-yl-but-3-ynyl)-6-cyclopentyl-dihydro-pyran-2,4-dione]	5.8 µM
O=C1CC(=O)OC(CCC#Cc2ccc3c(c2)OCO3)(C2CCCC2)C1 (centres unmarked) [Example 10, 6-(4-Benzo[1,3]dioxol-5-yl-but-3-ynyl)-6-cyclopentyl-dihydro-pyran-2,4-dione]	10.7 µM
COc1ccc(C#CC2(C3CCCC3)CC(=O)CC(=O)O2)cc1 (centres unmarked) [Example 1, 6-cyclopentyl-6-[(4-methoxyphenyl)ethynyl]dihydro-2H-pyran-2,4(3H)-dione]	12 µM
O=C1CC(=O)OC(C#Cc2nccs2)(C2CCCC2)C1 (centres unmarked) [Example 2, Cyclopentyl-6-(1,3-thiazol-2-ylethynyl)dihydro-2H-pyran-2,4(3H)-dione]	2.1 µM
COc1cccc(C#CCCC2(C3CCCC3)CC(=O)CC(=O)O2)c1 (centres unmarked) [Example 7, 6-Cyclopentyl-6-[4-(3-methoxy-phenyl)-but-3-ynyl]-dihydro-pyran-2,4-dione]	12.1 µM
CC(C)c1cccc(C#CC2(C3CCCC3)CC(=O)CC(=O)O2)c1 (centres unmarked) [Example 3]	8.5 µM
O=C1CC(CCC#Cc2cccc(O)c2)(C2CCCC2)OC(=O)C1Sc1ccccc1 (centres unmarked) [Example 17, 6-Cyclopentyl-6-[4-(3-hydroxy-phenyl)-but-3-ynyl]-3-phenylsulfanyl-dihydro-pyran-2,4-dione]	7.6 µM
COC(=O)Cc1ccc(C#CCCC2(C3CCCC3)CC(=O)CC(=O)O2)cc1 (centres unmarked) [Example 12, {4-[4-(2-cyclopentyl-4,6-dioxo-tetrahydro-pyran-2-yl)-but-1-ynyl]-phenyl}-acetic acid methyl ester]	10.2 µM
C#CCCC1(C2CCCC2)CC(=O)C(Sc2ccccc2)C(=O)O1 (centres unmarked) [Example 16, 6-But-3-ynyl-6-cyclopentyl-3-phenylsulfanyl-dihydro-pyran-2,4-dione]	80 µM
COC(=O)Cc1ccc(C#CC2(C3CCCC3)CC(=O)CC(=O)O2)cc1 (centres unmarked) [Example 4]	64.6 µM
C#CCCC1(C2CCCC2)CC(=O)CC(=O)O1 (centres unmarked) [Example 5, 6-but-3-ynyl-6-cyclopentyl-dihydro-pyran-2,4-dione]	74 µM
CC(=O)Nc1ccc(C#CCCC2(C3CCCC3)CC(=O)CC(=O)O2)cn1 (centres unmarked) [Example 11, N-{5-[4-(2-Cyclopentyl-4,6-dioxo-tetrahydro-pyran-2-yl)-but-1-ynyl]-pyridin-2-yl}-acetamide]	67 µM
